Where two headings read alike, the source gives them in different places. Where a SMILES comes first, the peptide text is derived from it. Bridges are numbered along the chain shown (N, C = ends). [ ]: non-standard residue; d: D form. The star is where a group is joined. hPhe(3-Cl-4-CF3) = N[C@@H](CCc1ccc(C(F)(F)F)c(Cl)c1)C(=O)O; NPrPhe(4-CF3) = CCCN[C@@H](Cc1ccc(C(F)(F)F)cc1)C(=O)O; NMeGly(cPent) = CN[C@H](C(=O)O)C1CCCC1; Hyp = O=C(O)[C@@H]1C[C@@H](O)CN1; NMeL = CN[C@@H](CC(C)C)C(=O)O; Morpholide = C1CN(*)CCO1; Aze = O=C(O)[C@@H]1CCN1; Ac4c = NC1(C(=O)O)CCC1; Sar = CNCC(=O)O
Key:
[1] = molecular target: GDP-bound KRAS wild-type protein (Homo sapiens, UniProt P01116); assay: Binding to KRAS by surface plasmon resonance (SPR), Single Cycle Kinetics; conditions: GDP-bound KRAS wild-type protein, read-out: KRAS KD
Chain of GDP-bound KRAS wild-type protein (P01116 whole entry): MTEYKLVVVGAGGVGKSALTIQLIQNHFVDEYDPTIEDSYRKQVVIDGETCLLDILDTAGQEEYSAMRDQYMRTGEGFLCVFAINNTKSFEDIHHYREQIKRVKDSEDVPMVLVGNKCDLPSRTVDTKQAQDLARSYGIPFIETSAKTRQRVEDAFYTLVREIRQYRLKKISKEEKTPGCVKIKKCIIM

[2] = molecular target: GDP-bound NRAS wild-type protein (Homo sapiens, UniProt P01111); assay: Binding to NRAS by surface plasmon resonance (SPR), Single Cycle Kinetics; conditions: SPR, GDP-bound NRAS wild-type protein vs GDP-bound KRAS wild-type protein
Chain of GDP-bound NRAS wild-type protein (P01111 whole entry): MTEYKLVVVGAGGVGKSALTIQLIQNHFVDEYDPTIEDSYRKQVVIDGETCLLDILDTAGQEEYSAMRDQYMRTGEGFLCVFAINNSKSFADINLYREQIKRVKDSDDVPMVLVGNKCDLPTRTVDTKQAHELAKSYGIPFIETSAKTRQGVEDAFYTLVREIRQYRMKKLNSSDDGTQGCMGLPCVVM

[3] = molecular target: GDP-bound HRAS wild-type protein (Homo sapiens, UniProt P01112); assay: Binding to HRAS by surface plasmon resonance (SPR), Single Cycle Kinetics; conditions: SPR, GDP-bound HRAS wild-type protein vs GDP-bound KRAS wild-type protein
Chain of GDP-bound HRAS wild-type protein (P01112 whole entry): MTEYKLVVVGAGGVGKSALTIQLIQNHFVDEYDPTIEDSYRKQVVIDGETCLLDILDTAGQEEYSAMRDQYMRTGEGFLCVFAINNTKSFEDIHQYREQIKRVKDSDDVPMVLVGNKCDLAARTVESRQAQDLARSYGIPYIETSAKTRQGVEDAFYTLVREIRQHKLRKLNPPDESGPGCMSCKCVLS

[4] = SPR Single Cycle Kinetics, 1:1 binding model

| SMILES | Kd [1, 4] [nM] | NRAS/KRAS (ratio of KD value for NRAS to KD value for KRAS) [2] | HRAS/KRAS (ratio of KD value for HRAS to KD value for KRAS) [3] | Kd ([1]; SPR, Single Cycle Kinetics) [nM] |
| --- | --- | --- | --- | --- |
| CCCN1C(=O)CN(C)C(=O)[C@@H]2CCN2C(=O)[C@H]([C@@H](C)CC)NC(=O)[C@H](CC(C)C)N(C)C(=O)C[C@@H](C(=O)N2CCOCC2)NC(=O)[C@H](C2CCCC2)N(C)C(=O)C2(CCC2)NC(=O)[C@@H]2C[C@@H](OCC)CN2C(=O)[C@H](CCc2ccc(C(F)(F)F)c(Cl)c2)NC(=O)CN(C)C(=O)[C@@H]1Cc1ccc(C(F)(F)F)cc1 [PP0342] ([NMeL]I[Aze][Sar][NPrPhe(4-CF3)][Sar][hPhe(3-Cl-4-CF3)][Hyp](Et)[Ac4c][NMeGly(cPent)]D-Morpholide; lactam N-11) | 1.7 | B (a compound having 3 or more and less than 10 is denoted as B) | B (a compound having 3 or more and less than 10 is denoted as B) | – |
| CCCN1C(=O)CN(C)C(=O)CN(C)C(=O)[C@H]([C@@H](C)CC)NC(=O)[C@H](CC(C)C)N(C)C(=O)C[C@@H](C(=O)N(C)C)NC(=O)[C@H](C2CCCC2)N(C)C(=O)C2(CCC2)NC(=O)[C@@H]2C[C@@H](OCC)CN2C(=O)[C@H](CCc2ccc(C(F)(F)F)c(Cl)c2)NC(=O)CN(C)C(=O)[C@@H]1Cc1ccc(C(F)(F)F)cc1 [PP0360] ([NMeL]I[Sar][Sar][NPrPhe(4-CF3)][Sar][hPhe(3-Cl-4-CF3)][Hyp](Et)[Ac4c][NMeGly(cPent)]D-NMe2; lactam N-11) | 0.25 | B (a compound having 3 or more and less than 10 is denoted as B) | C (A compound having a KD ratio of 0.1 or more and less than 3 is denoted as C) | – |
| CCCN1C(=O)CN(C)C(=O)CNC(=O)[C@H]([C@@H](C)CC)NC(=O)[C@H](CC(C)C)N(C)C(=O)C[C@@H](C(=O)N2CCOCC2)NC(=O)[C@H](C2CCCC2)N(C)C(=O)C2(CCC2)NC(=O)[C@@H]2CCCN2C(=O)[C@H](CCc2ccc(C(F)(F)F)c(Cl)c2)NC(=O)CN(C)C(=O)[C@@H]1Cc1ccc(C(F)(F)F)cc1 [PP0326] ([NMeL]IG[Sar][NPrPhe(4-CF3)][Sar][hPhe(3-Cl-4-CF3)]P[Ac4c][NMeGly(cPent)]D-Morpholide; lactam N-11) | 1.5 | B (a compound having 3 or more and less than 10 is denoted as B) | B (a compound having 3 or more and less than 10 is denoted as B) | – |
| CCC[C@H]1C(=O)N[C@@H]([C@@H](C)CC)C(=O)N(C2CC2)CC(=O)N(C)[C@H]2C/C=C\CCN(C2=O)[C@@H](Cc2ccc(C)cc2)C(=O)N(C)CC(=O)N[C@@H](CCc2cc(F)c(C(F)(F)F)c(F)c2)C(=O)N2C[C@H](OCC)C[C@H]2C(=O)NC2(CC(C)(C)C2)C(=O)N(C)[C@@H](C2CCCC2)C(=O)N(C)[C@H](C(=O)N(C)C)CC(=O)N1C [PP2093, (2S,8S,12R,14S,20S,23S,27S,30S,36S,38Z)-20-cyclopentyl-32-cyclopropyl-8-[2-[3,5-difluoro-4-(trifluoromethyl)phenyl]ethyl]-12-ethoxy-N,N,3′,3′,4,19,22,26,35-nonamethyl-30-[(1S)-1-methylpropyl]-3,6,9,15,18,21,25,28,31,34,42-undecaoxo-27-propyl-2-(p-tolylmethyl)spiro[1,4,7,10,16,19,22,26,29,32,35-undecazatricyclo[34.5.1.0^10,14]dotetracont-38-ene-17,1′-cyclobutane]-23-carboxamide] | – | A (a compound having 10 or more and less than 20 is denoted as A) | A (a compound having 10 or more and less than 20 is denoted as A) | 0.33 |
